For one assay, the target named is KRAS G12C-BRAF complex (Homo sapiens (Human), UniProt P01116+P62937, G12C). The experiment in a line: KRAS-BRAF with CYPA (500 nM) interaction assay (TR-FRET, Example 136). It counts as biochemical. To be noted: KRAS G12C-BRAF disruption. For orientation: TR-FRET usually uses a lanthanide donor and a delayed reading to cut background.
For assay [1], the system named is phosphorylation of ERK, KRAS G12V in SW620. The experiment in a line: pERK inhibition assay. To be noted: Homo sapiens, SW-620, 4 h, SW620 cells. Type of assay: cell-based. The essentials: (§1)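 Cells in RPMI-1640 with 10% FBS were plated overnight (30,000/well H358, 20,000 AGS, 30,000 SW620) and treated 4 h with compounds at 0.5% DMSO. After formaldehyde fixation and methanol permeabilization, pERK was detected by in-cell ELISA with HRP secondary and TMB (OD450); IC50 from 4-parameter fit.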

The test system of assay [2] is phosphorylation of ERK, KRAS G12D in AGS cells. The experiment in a line: pERK inhibition assay. To be noted: Homo sapiens, AGS, 4 h. Type of assay: cell-based. The essentials:
as §1

For assay [3], the system named is phosphorylation of ERK, KRAS G12C in NCI-H358 cells. Briefly: pERK inhibition assay. Type of assay: cell-based. The following applies: Homo sapiens, NCI-H358, 4 h. The essentials: as §1
The subject of another assay is SW620 cells (KRAS G12V). The experiment in a line: Cell viability assay (Cell Counting Kit-8, 3-day). To be noted: Homo sapiens, SW-620; SW620, 72 hrs incubation. Type of assay: cell-based, human. Summed up: (§2)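 Seed NCI-H358 5,000/well, AGS and SW620 2,000/well; overnight. Compound, 0.5% DMSO final, 72 hrs. CCK-8 2 hrs, OD450–OD650. IC50: 4-parameter fit.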
Assay [4] concerns NCI-H358 cells (KRAS G12C). The experiment in a line: Cell viability assay (Cell Counting Kit-8, 3-day). Type of assay: cell-based, human. The following applies: Homo sapiens, NCI-H358, 72 h, NCI-H358, 72 hrs incubation. Summed up: as §2
For orientation: Tetrazolium assays rely on reduction of a dye to a coloured formazan, in cell work by metabolically active cells.

For a further assay, the system named is AGS cells (KRAS G12D). The experiment in a line: Cell viability assay (Cell Counting Kit-8, 3-day). Type of assay: cell-based, human. To be noted: Homo sapiens, 72 h, 72 hrs incubation. The essentials:
as §2

Molecules are shown by their SMILES.

Chain of KRAS G12C-BRAF complex (P01116-2 other isoform, or with tags, fused parts or gaps G12C): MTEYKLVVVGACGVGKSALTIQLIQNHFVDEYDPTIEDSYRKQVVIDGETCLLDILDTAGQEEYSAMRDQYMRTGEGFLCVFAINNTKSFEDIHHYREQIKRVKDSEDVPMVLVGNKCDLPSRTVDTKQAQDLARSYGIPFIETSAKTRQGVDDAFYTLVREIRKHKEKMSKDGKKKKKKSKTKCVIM
Chain of KRAS G12C-BRAF complex (P62937 whole entry): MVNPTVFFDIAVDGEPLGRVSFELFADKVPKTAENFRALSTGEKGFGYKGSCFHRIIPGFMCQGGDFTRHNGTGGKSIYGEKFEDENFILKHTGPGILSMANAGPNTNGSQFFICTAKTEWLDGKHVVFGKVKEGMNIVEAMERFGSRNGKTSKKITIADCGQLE

Broadly, the IC50 is the concentration needed to halve the response being measured. The low end stands for greater potency, the high end for weaker potency. Take `CO[C@@H](C)c1ncc(N2CCOCC2)cc1-c1c2c3cc(cc4c3n1CCC4)-c1csc(n1)C[C@H](NC(=O)[C@H]1C[C@@H]1c1cccnc1)C(=O)N1CCC[C@H](N1)C(=O)OCC(C)(C)C2` (atropisomer, axis not shown; (M)) [Example 89, (1S,2S)-N-[(7S,13S)-(20M)-20-[2-[(1S)-1-methoxyethyl]-5-morpholino-3-pyridyl]-17,17-dimethyl-8,14-dioxo-15-oxa-4-thia-9,21,30,31-tetrazahexacyclo[23.3.1.1^2,5.1^9,13.0^19,27.0^21,26]hentriaconta-1 (28),2,5 (31), 19,25 (29),26-hexaen-7-yl]-2-(3-pyridyl)cyclopropanecarboxamide]: the IC50 stood at 6 nM against KRAS G12C-BRAF complex; 0.4 nM in assay [1]; 4.8 nM in assay [2]; 0.6 nM in assay [3]; 0.3 nM in the assay with SW620 cells (KRAS G12V); 1.5 nM in assay [4]. For the same compound, in the assay with AGS cells (KRAS G12D), inhibition was half-maximal at 6 nM (IC50).
As to `CO[C@@H](C)c1ncc(N2CCN(CC(F)(F)F)CC2)cc1-c1c2c3cc(cc4c3n1CCC4)-c1csc(n1)C[C@H](NC(=O)[C@H]1C[C@@H]1c1cccnc1)C(=O)N1CCC[C@H](N1)C(=O)OCC(C)(C)C2` (atropisomer, axis not shown; (M)) [Example 90, (1S,2S)-N-[(7S,13S)-(20M)-20-[2-[(1S)-1-methoxyethyl]-5-[4-(2,2,2-trifluoroethyl)piperazin-1-yl]-3-pyridyl]-17,17-dimethyl-8,14-dioxo-15-oxa-4-thia-9,21,30,31-tetrazahexacyclo[23.3.1.1^2,5.1^9,13.0^19,27.0^21,26]hentriaconta-1 (28),2,5 (31), 19,25 (29),26-hexaen-7-yl]-2-(3-pyridyl)cyclopropanecarboxamide], the IC50 at KRAS G12C-BRAF complex stood at 6.4 nM; in assay [1], 0.6 nM; in assay [2], 9.4 nM; in assay [3] it was 1.7 nM; in the assay on SW620 cells (KRAS G12V), 0.8 nM; in assay [4], 3.3 nM. In addition, the midpoint of inhibition with AGS cells (KRAS G12D), the IC50, lay at 16.8 nM.
Regarding `CO[C@@H](C)c1ncc(N2CCOCC2)cc1-c1c2c3cc(cc4c3n1CC(F)(F)C4)-c1csc(n1)C[C@H](NC(=O)[C@H]1C[C@@H]1c1cccnc1)C(=O)N1CCC[C@H](N1)C(=O)OCC(C)(C)C2` (atropisomer, axis not shown; (M)) [Example 91, (1S,2S)-N-[(7S,13S)-23,23-difluoro-(20M)-20-[2-[(1S)-1-methoxyethyl]-5-morpholino-3-pyridyl]-17,17-dimethyl-8,14-dioxo-15-oxa-4-thia-9,21,30,31-tetrazahexacyclo[23.3.1.1^2,5.1^9,13.0^19,27.0^21,26]hentriaconta-1 (28),2,5 (31),19,25 (29),26-hexaen-7-yl]-2-(3-pyridyl)cyclopropanecarboxamide], the IC50 came to 8.1 nM against KRAS G12C-BRAF complex; 0.6 nM in assay [1]; 3.2 nM in assay [2]; 0.5 nM in assay [3]; 0.6 nM in the assay on SW620 cells (KRAS G12V); 2.8 nM in assay [4]. In addition, in the assay with AGS cells (KRAS G12D), 9.7 nM corresponded to half-maximal inhibition (IC50).
Turning to `CO[C@@H](C)c1ncc(N2CCN(C)CC2)cc1-c1c2c3cc(cc4c3n1CC(F)(F)C4)-c1csc(n1)C[C@H](NC(=O)[C@H]1C[C@@H]1c1cccnc1)C(=O)N1CCC[C@H](N1)C(=O)OCC(C)(C)C2` (atropisomer, axis not shown; (M)) [Example 92], the IC50 on KRAS G12C-BRAF complex came out at 16 nM; in assay [1], 1 nM; in assay [2], 6 nM; in assay [3] it was 1.4 nM; in the assay on SW620 cells (KRAS G12V) it was 0.7 nM; in assay [4] it was 2.5 nM. This compound also had an IC50 in the assay with AGS cells (KRAS G12D) of 8.8 nM.
